Laboratory results published in article PMC3315319 (Nucleic Acids Research, 2011).

Target: T1, gp16 (eGFP-gp16) (Bacillus phage phi29, UniProt P11014)
T1 sequence (P11014 1-332): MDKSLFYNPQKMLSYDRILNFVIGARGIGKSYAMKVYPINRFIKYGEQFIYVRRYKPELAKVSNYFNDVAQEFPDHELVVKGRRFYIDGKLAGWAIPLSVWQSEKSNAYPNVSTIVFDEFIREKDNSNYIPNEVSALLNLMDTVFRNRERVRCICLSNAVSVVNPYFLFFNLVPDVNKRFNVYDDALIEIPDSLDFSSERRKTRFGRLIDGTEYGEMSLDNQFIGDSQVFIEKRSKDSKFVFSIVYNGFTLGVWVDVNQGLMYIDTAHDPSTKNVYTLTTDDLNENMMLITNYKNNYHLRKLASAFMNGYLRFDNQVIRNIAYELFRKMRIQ
Assay: EMSA, release of dsDNA from gp16/dsDNA/γ-S-ATP complex
Assay type: binding
Conditions: γ-S-ATP present, Cy3-dsDNA; indirect read-out of nucleotide action

Nc1ncnc2c1ncn2[C@@H]1O[C@H](COP(=O)(O)OP(=O)(O)O)[C@@H](O)[C@H]1O [ADP]
EMSA, release of dsDNA from gp16/dsDNA/γ-S-ATP complex: ADP also stimulated the release of gp16 from the gp16/dsDNA complex
